Data reported in US20240262833A1, “FUSED HETEROCYCLIC DERIVATIVES AS NEGATIVE ALLOSTERIC MODULATORS OF MGLU7 RECEPTOR” (Addex Pharma S.A., priority 2021, published 2024).

These compounds were tested against T1, human metabotropic glutamate 7 receptor (hmGlu7) (Homo sapiens, UniProt Q14831) (assay: mGlu7 assay on HEK-expressing human mGlu7: fluorescent cell based Ca2+ mobilization assay (FLIPR), inhibition of EC80 L-AP4 response). Settings: HEK-293 cells expressing hmGlu7; EC80 L-AP4 stimulation; mean of at least three independent experiments in duplicate; read-out: Ca2+ Flux (mean IC50).
T1 construct: expressed in transfected cells
T1 sequence (Q14831 35-922 isoform Q14831-2): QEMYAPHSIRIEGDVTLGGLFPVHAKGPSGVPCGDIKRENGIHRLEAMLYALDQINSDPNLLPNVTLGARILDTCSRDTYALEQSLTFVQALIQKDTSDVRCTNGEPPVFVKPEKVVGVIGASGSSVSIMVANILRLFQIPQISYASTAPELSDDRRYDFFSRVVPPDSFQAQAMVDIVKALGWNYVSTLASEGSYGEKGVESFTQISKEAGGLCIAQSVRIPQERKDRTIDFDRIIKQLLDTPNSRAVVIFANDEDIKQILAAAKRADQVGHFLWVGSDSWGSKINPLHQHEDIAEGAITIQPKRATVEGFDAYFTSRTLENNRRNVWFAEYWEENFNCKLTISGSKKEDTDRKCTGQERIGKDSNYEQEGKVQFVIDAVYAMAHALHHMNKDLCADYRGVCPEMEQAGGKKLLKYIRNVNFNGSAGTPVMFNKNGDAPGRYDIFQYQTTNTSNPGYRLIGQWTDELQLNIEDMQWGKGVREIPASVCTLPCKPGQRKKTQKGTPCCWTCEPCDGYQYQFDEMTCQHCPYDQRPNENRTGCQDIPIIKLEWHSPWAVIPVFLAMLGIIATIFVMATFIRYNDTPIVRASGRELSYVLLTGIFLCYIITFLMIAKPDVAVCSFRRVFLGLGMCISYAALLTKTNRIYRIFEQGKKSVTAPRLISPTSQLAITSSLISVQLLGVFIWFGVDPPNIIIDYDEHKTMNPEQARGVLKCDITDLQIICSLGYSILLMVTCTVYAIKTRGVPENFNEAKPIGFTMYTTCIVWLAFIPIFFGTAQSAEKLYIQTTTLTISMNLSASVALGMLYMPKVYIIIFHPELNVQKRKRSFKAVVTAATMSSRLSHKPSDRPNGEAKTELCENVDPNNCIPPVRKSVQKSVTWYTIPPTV
Excerpt: mGlu7 Assay on HEK-Expressing Human mGlu7
The cDNA encoding the human metabotropic glutamate 7 receptor (hmGlu7), (accession number NM_181874.2, NCBI Nucleotide database browser), was subcloned into an expression vector containing also the hygromycin resistance gene. In parallel, the cDNA encoding a G protein allowing redirection of the activation signal to intracellular calcium flux was subcloned into a different expression vector containing also the Puromycin resistance gene. Transfection of both these vectors into HEK293 cells with PolyFect reagent (Qiagen) according to supplier's protocol, and hygromycin and puromycin treatment allowed selection of antibiotic resistant cells which had integrated stably one or more copies of the plasmids. Positive cellular clones expressing hmGlu7 were identified in a functional assay measuring changes in calcium fluxes in response to glutamate and L-AP4 or known mGlu7 orthosteric antagonists.
HEK-293 cells expressing hmGlu7 were maintained in media containing DMEM, Fetal Bovine Serum (10%), Glutamax™ (2 mM), penicillin (100 units/mL), streptomycin (100 μg/mL), geneticin (100 μg/mL) and hygromycin-B (40 μg/mL) and puromycin (1 μg/mL) at 37° C. with 5% CO2 in a humidified atmosphere.
Fluorescent Cell Based-Ca^2+ Mobilization Assay Human mGlu7 HEK-293 cells were plated out 24 hours prior to a fluorescent cell-based calcium mobilization assay using FLIPR^384 assay (Molecular Device, Sunnyvale, CA, USA) in black-walled, clear-bottomed, poly-L-ornithine-coated 384-well plates at a density of 25,000 cells/well in a glutamine/glutamate free DMEM medium containing fetal bovine serum (10%), penicillin (100 units/mL), streptomycin (100 μg/mL) and doxycyline (1 μg/ml) at 37° C. with 5% CO2 in a humidified atmosphere.
On the day of the assay, the medium was aspirated and the cells were loaded with a 3 μM solution of Fluo4-AM (LuBioScience, Lucerne, Switzerland) in 0.03% pluronic acid. After 1 hour at 37° C./5% CO2, the non incorporated dye was removed by washing cell plate with the assay buffer. All assays were performed in a pH 7.4 buffered-solution containing 20 mM HEPES, 143 mM NaCl, 6 mM KCl, 1 mM MgSO4, 1 mM CaCl2, 0.125 mM sulfinpyrazone and 0.1% glucose.
After 10 s of basal fluorescence recording, various concentrations of the compounds of the invention were added to the cells. Changes in fluorescence levels were first monitored for 180 s in order to detect any agonist activity of the compounds. Then the cells were stimulated by an EC80 L-AP4 concentration for an additional 110 s in order to measure inhibiting activities of the compounds of the invention. EC80 L-AP4 concentration is the concentration giving 80% of the maximal glutamate response.
The concentration-response curves of L-AP4 or representative compounds of the present invention were generated using the Prism GraphPad software (Graph Pad Inc, San Diego, USA). The curves were fitted to a four-parameter logistic equation: […]
allowing determination of IC50 values.
The Table 3 below represents the mean IC50 obtained from at least three independent experiments of selected molecules performed in duplicate.
`Cc1c2cnn(-c3ccccc3)c(=O)c2c(C)n1-c1cccc(N2CCOCC2)c1` [1-33] gave an IC50 of 100 to 1000 nM. `COc1ccc(-n2ncc3c(C)n(-c4ccccc4)c(C)c3c2=O)cc1` [1-13, 2-(4-Methoxyphenyl)-5,7-dimethyl-6-phenyl-2,6-dihydro-1H-pyrrolo[3,4-d]pyridazin-1-one] showed an IC50 of 100 to 1000 nM. For `COc1ccc(-n2ncc3c(C)n(-c4cccc(OC)c4)c(C)c3c2=O)cc1` [1-97], the IC50 was < 100 nM. `COc1cccc(-n2c(C)c3cnn(-c4ccc(CO)cc4)c(=O)c3c2C)c1` [1-66] was tested, and the IC50 was < 100 nM. With `Cc1c2cnn(-c3ccccn3)c(=O)c2c(C)n1-c1cccc(-n2cccc2)c1` [1-142] the IC50 was < 100 nM. With `Cc1c2cnn(-c3ccccc3)c(=O)c2c(C)n1-c1ccccc1F` [1-29] the IC50 was 100 to 1000 nM. `COCc1ccc(-n2ncc3c(C)n(-c4ccccc4)c(C)c3c2=O)cc1` [1-38] was tested, and the IC50 was < 100 nM. `Cc1c2cnn(-c3ccc(CCO)cc3)c(=O)c2c(C)n1-c1cccc(N2CCC2)c1` [1-169, 6-(3-(Azetidin-1-yl)phenyl)-2-(4-(2-hydroxyethyl)phenyl)-5,7-dimethyl-2,6-dihydro-1H-pyrrolo[3,4-d]pyridazin-1-one] was tested, and the IC50 was < 100 nM. In the case of `Cc1c2cnn(-c3ccc(CC(N)=O)cc3)c(=O)c2c(C)n1-c1cccc(N2CCC2)c1` [1-185], the IC50 is reported as < 100 nM. In the case of `COc1cccc(-n2c(C)c3cnn(-c4ccc(C)cn4)c(=O)c3c2C)c1` [1-172], the IC50 is reported as 100 to 1000 nM. Work on `COc1cccc(-n2c(C)c3cnn(-c4cccc(CO)c4)c(=O)c3c2C)c1` [1-114] yielded an IC50 of 100 to 1000 nM. Work on `COc1cc(-n2c(C)c3cnn(-c4ccccn4)c(=O)c3c2C)ccc1Cl` [1-72] yielded an IC50 of 1000 to 10000 nM. For `CCOc1cccc(-n2ncc3c(C)n(-c4cccc(OC)c4)c(C)c3c2=O)c1` [1-144], the IC50 was < 100 nM. `COc1cccc(-n2c(C)c3cnn(-c4cccc(OC)n4)c(=O)c3c2C)c1` [1-74] showed an IC50 of 1000 to 10000 nM. `COc1ccc(-n2c(C)c3cnn(-c4ccccc4)c(=O)c3c2C)cc1` [1-24] was tested, and the IC50 was 100 to 1000 nM. Work on `Cc1cccc(-n2c(C)c3cnn(-c4cccnc4)c(=O)c3c2C)c1` [1-40] yielded an IC50 of 100 to 1000 nM. `Cc1ccc(-n2ncc3c(C)n(-c4ccccc4)c(C)c3c2=O)cn1` [1-50] was tested, and the IC50 was 100 to 1000 nM. `COc1cccc(-n2c(C)c3cnn(-c4ccc(S(C)(=O)=O)cc4)c(=O)c3c2C)c1` [1-119] was tested, and the IC50 was < 100 nM. `Cc1c2cnn(-c3ccccn3)c(=O)c2c(C)n1-c1cccc(OC(F)F)c1` [1-202] was tested, and the IC50 was < 100 nM. `Cc1c2cnn(-c3ccc(C#N)cn3)c(=O)c2c(C)n1-c1cccc(N2CCC2)c1` [1-160] was tested, and the IC50 was < 100 nM. For `COc1cccc(-n2c(C)c3cnn(-c4cccc(OC)c4)c(=O)c3c2C)c1` [1-130], the IC50 was < 100 nM. `COc1cccc(-n2c(C)c3cnn(-c4ccccn4)c(=O)c3c2C)c1Cl` [1-197] gave an IC50 of 100 to 1000 nM. For `Cc1cc(-n2ncc3c(C)n(-c4cccc(N5CCC5)c4)c(C)c3c2=O)cc(C)n1` [1-165], the IC50 was < 100 nM. Compound `Cc1c2cnn(-c3ccccn3)c(=O)c2c(C)n1-c1ccc2ccn(C)c2c1` [1-96, 5,7-Dimethyl-6-(1-methyl-1H-indol-6-yl)-2-(pyridin-2-yl)-2,6-dihydro-1H-pyrrolo[3,4-d]pyridazin-1-one] has an IC50 of 1000 to 10000 nM. `CCc1c2c(=O)n(-c3ccccc3)ncc2c(C)n1-c1cccc(OC)c1` [1-89] gave an IC50 of 100 to 1000 nM. `CC(=O)c1ccc(-n2c(C)c3cnn(-c4ccccc4)c(=O)c3c2C)cc1` [1-31] was tested, and the IC50 was < 100 nM. With `Cc1c2cnn(-c3ccccc3)c(=O)c2c(C)n1-c1ccc(Cl)cc1` [1-8] the IC50 was 100 to 1000 nM. For `Cc1c2cnn(-c3ccc(Cl)cn3)c(=O)c2c(C)n1-c1cccc(N2CCC2)c1` [1-183], the IC50 was < 100 nM. `Cc1ccc(-n2c(C)c3cnn(-c4cccc(C)c4)c(=O)c3c2C)cc1` [1-99] was tested, and the IC50 was 100 to 1000 nM. With `Cc1c2cnn(-c3ccc(S(N)(=O)=O)cc3)c(=O)c2c(C)n1-c1cccc(N2CCOCC2)c1` [1-68] the IC50 was 100 to 1000 nM. Work on `CCc1c2cnn(-c3ccccn3)c(=O)c2c(C)n1-c1cccc(OC)c1` [1-140] yielded an IC50 of 1000 to 10000 nM. `Cc1ccc(-n2c(C)c3cnn(-c4cccnc4)c(=O)c3c2C)cc1` [1-39] gave an IC50 of 100 to 1000 nM. With `Cc1c2cnn(-c3ccccc3)c(=O)c2c(C)n1-c1ccc(N(C)C)cc1` [1-23] the IC50 was 100 to 1000 nM. In the case of `Cc1c2cnn(-c3ncccc3F)c(=O)c2c(C)n1-c1cccc(N2CCC2)c1` [1-225], the IC50 is reported as < 100 nM. `COc1ccc(-n2ncc3c(C)n(-c4ccccn4)c(C)c3c2=O)cc1` [1-81] gave an IC50 of 1000 to 10000 nM. Compound `COc1ccccc1-n1ncc2c(C)n(-c3ccccc3)c(C)c2c1=O` [1-5] has an IC50 of 1000 to 10000 nM. `COc1cccc(-n2c(C)c3cnn(-c4cccc(CC#N)c4)c(=O)c3c2C)c1` [1-146] was tested, and the IC50 was < 100 nM. In the case of `Cc1c2cnn(-c3ncc(F)cn3)c(=O)c2c(C)n1-c1cc(F)cc(N2CCC2)c1` [1-208], the IC50 is reported as < 100 nM. `COc1ccc(-n2c(C)c3cnn(-c4ncccn4)c(=O)c3c2C)cn1` [1-241] gave an IC50 of 1000 to 10000 nM. With `COc1cccc(-n2c(C)c3cnn(-c4ccc(C(C)(C)O)cn4)c(=O)c3c2C)c1` [1-216] the IC50 was < 100 nM. With `COc1cccc(-n2c(C)c3cnn(-c4cncnc4)c(=O)c3c2C)c1` [1-95] the IC50 was 100 to 1000 nM. With `COc1cccc(-n2c(C)c3cnn(-c4ccc(CNC(C)=O)cc4)c(=O)c3c2C)c1` [1-65] the IC50 was < 100 nM. `Cc1c2cnn(-c3ccccn3)c(=O)c2c(C)n1-c1ccccc1` [1-22] was tested, and the IC50 was 1000 to 10000 nM. In the case of `Cc1c2cnn(-c3ccccn3)c(=O)c2c(C)n1-c1cccc(Oc2ccccc2)c1` [1-187], the IC50 is reported as 1000 to 10000 nM. Compound `Cc1c2cnn(-c3ccccc3)c(=O)c2c(C)n1-c1cccc(N2CCCC2=O)c1` [1-49] has an IC50 of 100 to 1000 nM. `COc1cccc(-n2c(C)c3cnn(-c4ccc(-c5ccccc5)cc4)c(=O)c3c2C)c1` [1-71] showed an IC50 of 100 to 1000 nM. With `Cc1c2cnn(-c3ccc(F)cn3)c(=O)c2c(C)n1-c1cccc(N2CCC2)c1` [1-173] the IC50 was < 100 nM. `CC(=O)c1ccc(-n2ncc3c(C)n(-c4cccc(N5CCC5)c4)c(C)c3c2=O)cc1` [1-171] was tested, and the IC50 was < 100 nM. `COc1cccc(-n2c(C)c3cnn(-c4ccccn4)c(=O)c3c2C)c1F` [1-233] gave an IC50 of 100 to 1000 nM. Compound `Cc1c2cnn(-c3ccccc3)c(=O)c2c(C)n1-c1cccc(Br)c1` [1-34, 6-(3-bromophenyl)-5,7-dimethyl-2-phenyl-2,6-dihydro-1H-pyrrolo[3,4-d]pyridazin-1-one] has an IC50 of 1000 to 10000 nM. With `Cc1c2cnn(-c3ccc(C(C)(C)O)cc3)c(=O)c2c(C)n1-c1cccc(N2CCC2)c1` [1-170, 6-(3-(Azetidin-1-yl)phenyl)-2-(4-(2-hydroxypropan-2-yl)phenyl)-5,7-dimethyl-2,6-dihydro-1H-pyrrolo[3,4-d]pyridazin-1-one] the IC50 was < 100 nM. In the case of `Cc1c2cnn(-c3ccccn3)c(=O)c2c(C)n1-c1ccc2cc[nH]c2c1` [1-80], the IC50 is reported as 1000 to 10000 nM. `Cc1c2cnn(-c3ccc(C#N)cc3)c(=O)c2c(C)n1-c1ccccc1` [1-17] was tested, and the IC50 was 100 to 1000 nM. For `COc1cccc(-n2c(C)c3cnn(-c4ccc(C(C)(C)C)cn4)c(=O)c3c2C)c1` [1-206], the IC50 was 100 to 1000 nM. With `Cc1c2cnn(-c3ccccn3)c(=O)c2c(C)n1-c1cccc(N2CCCC2=O)c1` [1-111] the IC50 was 1000 to 10000 nM. In the case of `Cc1c(OC2CC2)cccc1-n1c(C)c2cnn(-c3ncc(F)cn3)c(=O)c2c1C` [1-212], the IC50 is reported as < 100 nM. In the case of `Cc1c(OC2CC2)cccc1-n1c(C)c2cnn(-c3ncccc3F)c(=O)c2c1C` [1-211], the IC50 is reported as < 100 nM. `Cc1cccc(-n2ncc3c(C)n(-c4cccc(N5CCOCC5)c4)c(C)c3c2=O)c1` [1-84] gave an IC50 of 1000 to 10000 nM. In the case of `Cc1cccc(-n2c(C)c3cnn(-c4ccccc4)c(=O)c3c2C)c1` [1-6], the IC50 is reported as < 100 nM. For `COc1cccc(-n2c(C)c3cnn(-c4ccccc4OC)c(=O)c3c2C)c1` [1-148], the IC50 was 100 to 1000 nM. For `Cc1c2cnn(-c3ccccn3)c(=O)c2c(C)n1-c1cccc(N2CCCC2)c1` [1-59], the IC50 was < 100 nM. Compound `Cc1c(OC2CC2)cccc1-n1c(C)c2cnn(-c3ccc(N4CCOCC4)cc3)c(=O)c2c1C` [1-221] has an IC50 of 1000 to 10000 nM. For `Cc1ccc(-n2c(C)c3cnn(-c4ccccc4)c(=O)c3c2C)c(C)c1` [1-32], the IC50 was 100 to 1000 nM. In the case of `Cc1c2cnn(C34CC(C3)C4)c(=O)c2c(C)n1-c1cccc(N2CCC2)c1` [1-222], the IC50 is reported as 100 to 1000 nM. With `COc1cccc(-n2c(C)c3cnn(-c4ccc(O)cc4)c(=O)c3c2C)c1` [1-145] the IC50 was < 100 nM. `COc1cccc(-n2c(C)c3cnn(-c4ccccc4Cl)c(=O)c3c2C)c1` [1-150] gave an IC50 of 100 to 1000 nM.
